Assay results: publication PMC4499427 (Iranian Journal of Pharmaceutical Research : IJPR, 2015)
≈ marks a conversion by molar mass, not a printed value. Like-named read-outs stand apart in the source and are kept apart here.

Columns and labels:
[1] = system: Mycobacterium bovis BCG (1173P2); experiment: microbe, parasite or virus in culture; type: cell-based; settings: for MIC: Mycobacterium tuberculosis variant bovis BCG, BCG
[2] = Cytotoxicity assay, MTT method; type: cell-based; settings: mouse, L929 fibroblast cells, Fibroblast L929 cell line
Description: (§1) The synthesized derivatives were assayed for their toxicity on Fibroblast L929 cell line by MTT [[…]] method. The cells were grown in RPMI1640 medium at 37 °C under 5% CO2 supplemented with 10% heat inactivated fetal bovine serum (FBS), 100 U/mL penicillin and 100 µg/mL streptomycin. Then, the cells were seeded into 96-well plates at a concentration of 6000 cells/well and allowed to incubate for 24 h. The medium was then discarded and different concentrations of test compounds in complete medium were added to each well. […] The produced formazan crystals were dissolved in 100 µL of DMSO. Plates were incubated for 20 min at 37 °C and the optical densities were read at 570 nm with a reference wavelength of 630 nm as background using a spectrophotometer plate reader (Infinite® M200, TECAN). Doxorubicin and cisplatin were used as positive controls and DMSO as the solvent of the test compounds and its final concentration was less than 0.2%. IC50 was calculated by GraphPad Prism 5.04 software. All the tests were performed in triplicates.

[3] = system: Fibroblast L929 cell line; experiment: Cytotoxicity assay, MTT method; type: cell-based; settings: 48 h
Description: as §1

[4] = 24 h, read-out: Antimycobacterial activity MIC
[5] = 48 h, read-out: Antimycobacterial activity MIC
[6] = Mycobacterium bovis BCG, read at 24 h after Alamar blue
[7] = Mycobacterium bovis BCG, read at 48 h after Alamar blue
[8] = Mycobacterium bovis BCG, reading time not given

Row | Structure (SMILES) | MIC [1, 4] [µg/mL] | MIC [1, 5] [µg/mL] | IC50 at 48 h [2] [µg/mL] | melting point | further results
1 | C[S+](C)[O-] [DMSO] | – | – | – | – | Antimycobacterial activity MIC ([1]; Mycobacterium bovis BCG, 24 h, negative control DMSO): 6.5/6.5 % v/v; Antimycobacterial activity MIC ([1]; Mycobacterium bovis BCG, 48 h, negative control DMSO): 6.5/6.5 % v/v
2 | CC[C@@H](CO)NCCN[C@@H](CC)CO [Ethambutol, reference compound] | 0.75 (≈ 3.67 µM) | 0.75 (≈ 3.67 µM) | – | – | –
3 | S=c1[nH]ncn1N=Cc1ccccn1 [IIIa, 4-(pyridin-2-ylmethyleneamino)-1,2,4-triazole-5-thione] | 62.5 (≈ 305 µM) | 125 (≈ 609 µM) | > 100 | – | MIC ([1]; read-out: MIC value): 62.5 µg/mL (≈ 305 µM)
4 | S=c1[nH]ncn1N=Cc1cccnc1 [IIIb, 4-(pyridin-3-ylmethyleneamino)-1,2,4-triazole-5-thione] | 125 (≈ 609 µM) | 125 (≈ 609 µM) | > 100 | 157 °C (dec.) | –
5 | S=c1[nH]ncn1N=Cc1ccncc1 [IIIc, 4-(pyridin-4-ylmethyleneamino)-1,2,4-triazole-5-thione] | 93.8 (≈ 457 µM) | 125 (≈ 609 µM) | > 100 | 255 to 256 °C | –
6 | CC(=O)Nc1ccc(C=Nn2cn[nH]c2=S)cc1 [IIId, 4-(4-acetamidobenzyldeneamino)-1,2,4-triazole-5-thione] | – | – | – | – | Antimycobacterial activity MIC [1, 6]: 125/125 µg/mL; Antimycobacterial activity MIC [1, 7]: 125/125 µg/mL; Cytotoxicity IC50 [3]: >100 µg/mL
7 | S=c1[nH]ncn1/N=C/C=C/c1ccccc1 [IIIe, 4-((E)-3-phenylallylideneamino)-1,2,4-triazole-5-thione] | 62.5 (≈ 271 µM) | 62.5 (≈ 271 µM) | 42.6 (≈ 185 µM) | – | MIC ([1]; read-out: MIC value): 62.5 µg/mL (≈ 271 µM)
8 | S=c1[nH]nc2n1N=C(c1ccccc1)CC2 [IIa, 6-phenyl-7,8-dihydro-[1,2,4]triazolo[4,3-b]pyridazine-3-thione] | 62.5 (≈ 271 µM) | 62.5 (≈ 271 µM) | > 100 | 253 °C (dec.) | MIC ([1]; read-out: MIC value): 62.5 µg/mL (≈ 271 µM)
9 | S=c1[nH]nc2n1N=C(c1ccc(Cl)cc1)CC2 [IIb, 6-(4-chlorophenyl)-7,8-dihydro-[1,2,4]triazolo[4,3-b]pyridazine-3-thione] | > 500 | > 500 | > 100 | 256 °C (dec.) | antimycobacterial activity (in words) ([1]; Mycobacterium bovis BCG): inactive
10 | Nn1cnnc1S [Ia, 4-amino-1,2,4-triazole-5-thione] | 62.5 (≈ 538 µM) | 62.5 (≈ 538 µM) | > 100 | – | –
11 | Cc1n[nH]c(=S)n1N [Ib] | – | – | – | – | IC50 value [1, 8]: 31.25 µg/mL (≈ 240 µM); MIC value [1, 8]: 31.25 µg/mL (≈ 240 µM); Antimycobacterial activity MIC [1, 6]: 31.25/31.25 µg/mL; Antimycobacterial activity MIC [1, 7]: 31.25/31.25 µg/mL; Cytotoxicity IC50 [3]: >100 µg/mL
12 | CCc1n[nH]c(=S)n1N [Ic] | – | – | – | – | Antimycobacterial activity MIC [1, 6]: 62.5/62.5 µg/mL; Antimycobacterial activity MIC [1, 7]: 62.5/62.5 µg/mL; Cytotoxicity IC50 [3]: >100 µg/mL
13 | Nn1c(Cc2c[nH]c3ccccc23)n[nH]c1=S [Id, 4-amino-3-(indol-3-ylmethyl)-1,2,4-triazole-5-thione] | 62.5 (≈ 255 µM) | 62.5 (≈ 255 µM) | > 100 | 172 to 175 °C | –
14 | Nn1c(C(O)c2ccccc2)n[nH]c1=S (centres unmarked) [Ie, 4-amino-3-(hydroxy(phenyl)methyl)-1,2,4-triazole-5-thione] | 62.5 (≈ 281 µM) | 62.5 (≈ 281 µM) | > 100 | 167 to 170 °C | –
15 | Nn1c(Cc2cccs2)n[nH]c1=S [If, 4-amino-3-(thiophen-2-ylmethyl)-1,2,4-triazole-5-thione] | 62.5 (≈ 294 µM) | 62.5 (≈ 294 µM) | > 100 | 154 to 157 °C | –
